Where only a bound is given, the exact number is not on record here.

This note sets out measurements from patent publication US5767149A, “α-glycosyl-L-ascorbic acid, and it's preparation and uses” (priority 1989, dated 1998).

One series is described as follows: physchem. Conditions: for Remaining ratio: 0 min, 70 uM; for remaining at 0.25 h, 70 µM / remaining at 0.5 h, 70 µM / remaining at 1 h, 70 µM / remaining at 21 h, 70 µM: water. The series is classed as physicochemical. On the procedure: (c) 2-O-α-D-Glucosyl-L-ascorbic acid was compared respectively to the 6-O-α-D-glucosyl-L-ascorbic acid disclosed in Japanese Patent Publication No. 38,158/73, and L-ascorbic acid for their stability in aqueous solution. More particularly, each sample was adjusted to a concentration of 70 micromoles and to pH 7.0 or 2.0, placed in a cuvette, and measured for its absorbance at either 260 nm and pH 7.0 or at 245 nm and pH 2.0 while keeping the solution at 20° C. The remaining ratio (%) was calculated with the absorbance.

The test system of another series is cytochrome C. In words: Reducing activity on cytochrome C. The series is classed as biochemical. The settings on record: for Reducing activity on cytochrome C: intact sample, 10 microliters of 10 mM, pH 7.8.
The subject of a further series is human fibroblast cell. Put plainly: Collagenic activity in human fibroblast cell. The format is cell-based. Conditions: 0.25 mM, 24 hours. On the procedure: (b) Collagenic activity 2-O-α-D-Glucosyl-L-ascorbic acid, 6-O-α-D-glucosyl-L-ascorbic acid and L-ascorbic acid were tested for their collagenic activity. A human fibroblast cell, cell density of 7×10^4 cells/plate, was cultured in Eagle's minimal essential medium supplemented with 10% FCS for 1 week, added with 4 μCi/ml ^3 H-proline, 20 μg/ml of β-aminopropionitrile and 0.25 mM of either sample, and cultured for an additional 24 hours. The resultant was then added with 10 w/v % trichloroacetic acid to recover the collagenous element in the culture, followed by lyophilization. The resultant specimen was dissolved, and the solution was adjusted to an appropriate pH, treated with a collagenase (Type III) at 37° C. for 90 minutes, and centrifuged. Collagenic activity was estimated by determining the radio activity in the supernatant.

The test system of a further series is β-glucosidase. In words: Hydrolysis by β-glucosidase. The series is classed as biochemical. From the text: (b) Unhydrolyzable by β-glucosidase.
A further series in a line: Solubility in solvents. The series is classed as physicochemical.
For another series, the system named is α-glucosidase. In words: Hydrolysis by α-glucosidase. The series is classed as biochemical. The settings on record: forms L-ascorbic acid and D-glucose, molar ratio 1:1. As to the method: (§1) (a) Hydrolyzable by α-glucosidase or by treatment with 1N hydrochloric acid at 100° C. for 5 minutes to form L-ascorbic acid and D-glucose at a molar ratio of 1:1.
The next series deals with dd mice. In words: Acute toxicity, oral. The series is classed as in vivo, mouse. From the text: A high-purity α-D-glucosyl-L-ascorbic acid specimen, prepared by the method in Experiment 2(2), was orally administered to 7 week-old dd mice for acute toxicity test. As the result, no mouse died when administered with up to […] of the specimen, and higher dose was difficult.

Series [1] is described as follows: Coloring reaction: direct reducing activity on 2,6-dichlorophenolindophenol.
Series [2] can be described thus: Hydrolysis by 1N hydrochloric acid at 100° C. The series is classed as physicochemical. Conditions: 5 minutes. On the procedure: as §1

As usually defined, the amount remaining is what is left of the initial amount, in per cent. As for `O=C1O[C@H]([C@@H](O)CO)C(O)=C1O` [L-ascorbic acid], in the series “physchem” (pH 2), the Remaining ratio is 100%; the amount remaining at 0.25 h, 70 µM is 99%; the fraction remaining at 0.5 h, 70 µM amounted to 97%; the amount remaining at 1 h, 70 µM came out at 87%. Moreover, the amount remaining at 21 h, 70 µM in “physchem” (pH 2) amounted to 10%. Also, in “physchem” (pH 7), the Remaining ratio is given as 100%; the fraction remaining at 0.25 h, 70 µM worked out at 47%; the amount remaining at 0.5 h, 70 µM was 20%; the amount remaining at 1 h, 70 µM is 8%. The molecule also yielded an amount remaining at 21 h, 70 µM in the series “physchem” (pH 7) of 2%. Besides, the “Reducing activity on cytochrome C” value in the series on cytochrome C was “unlike 6-O-α-D-glucosyl-L-ascorbic acid and L-ascorbic acid, 2-O-α-D-glucosyl-L-ascorbic acid exhibited no reducing activity”.
`O=C1O[C@H]([C@@H](O)CO[C@H]2O[C@H](CO)[C@@H](O)[C@H](O)[C@H]2O)C(O)=C1O` [6-O-α-D-glucosyl-L-ascorbic acid]: in “physchem” (pH 2), the Remaining ratio came to 100%; the fraction remaining at 0.25 h, 70 µM worked out at 99%; the amount remaining at 0.5 h, 70 µM turned out to be 98%; the share remaining at 1 h, 70 µM is 91%. The fraction remaining at 21 h, 70 µM in the series “physchem” (pH 2) worked out at 55%. Further, in the series “physchem” (pH 7), the Remaining ratio amounted to 100%; the amount remaining at 0.25 h, 70 µM stood at 58%; the amount remaining at 0.5 h, 70 µM is 36%; the amount remaining at 1 h, 70 µM turned out to be 17%. Further, the amount remaining at 21 h, 70 µM in “physchem” (pH 7) was 8%. Also, in the series with human fibroblast cell, the Collagenic activity result is on record as “slightly inferior in collagenic activity to that of 2-O-α-D-glucosyl-L-ascorbic acid”. In the series on cytochrome C, the “Reducing activity on cytochrome C” value is “unlike 6-O-α-D-glucosyl-L-ascorbic acid and L-ascorbic acid, 2-O-α-D-glucosyl-L-ascorbic acid exhibited no reducing activity”.
Take `O=C1O[C@H]([C@@H](O)CO)C(O)=C1O[C@H]1O[C@H](CO)[C@@H](O)[C@H](O)[C@H]1O` [2-O-α-D-glucosyl-L-ascorbic acid]: the “Hydrolysis by β-glucosidase” value in the series with β-glucosidase is “Unhydrolyzable”. Besides, in the series “physchem”, the “Stability in aqueous solution” value is “extremely stable in aqueous solution”. Also, the Remaining ratio in the series “physchem” (pH 2) and in “physchem” (pH 7) was 100% in each case. The fraction remaining at 0.25 h, 70 µM in “physchem” (pH 2) and in “physchem” (pH 7) was 100% each time. Moreover, the share remaining at 0.5 h, 70 µM in the series “physchem” (pH 2) and in “physchem” (pH 7) was 100% in each case. Moreover, the amount remaining at 1 h, 70 µM in “physchem” (pH 2) and in the series “physchem” (pH 7) was 100% each time. Also, the fraction remaining at 21 h, 70 µM in the series “physchem” (pH 2) and in “physchem” (pH 7) was 100% throughout. Besides, the Solubility result in the series “Solubility in solvents” (0.1N acetic acid) was “Readily soluble”; in the series “Solubility in solvents” (0.1N sodium hydroxide) it was “Readily soluble”; in “Solubility in solvents” (benzene) it was “insoluble”; in “Solubility in solvents” (chloroform) it was “insoluble”; in “Solubility in solvents” (ethanol), “soluble”; in “Solubility in solvents” (ether), “insoluble”. Further, the Solubility result in “Solubility in solvents” (methanol) is recorded as “soluble”; in the series “Solubility in solvents” (water) it was “Readily soluble”. For the same molecule, in the series on α-glucosidase, the “Hydrolysis by α-glucosidase” value was “Hydrolyzable”. In addition, the Collagenic activity result in the series on human fibroblast cell is given as “the same collagenic activity as that of L-ascorbic acid”. For the same molecule, in the series with dd mice (7 week-old dd mice, higher dose was difficult), the “Highest dose administered without death” value was not below 5 g. In the series on dd mice (7 week-old dd mice, up to 5 g), the Mortality entry is “no mouse died”. Besides, in the series on dd mice (dd mice), the “Toxicity” value is “extremely low in toxicity”. For the same molecule, the “Reducing activity on cytochrome C after hydrolysis” value in the series with cytochrome C (hydrolyzed by α-glucosidase specimen) is “exhibited a reducing activity”. Also, the “Reducing activity on cytochrome C” value in the series with cytochrome C is “no reducing activity”. The “Direct reducing activity (2,6-dichlorophenolindophenol)” value in series [1] is “no direct reducing activity, and not reducing and decoloring 2,6-dichlorophenolindophenol”. Moreover, the Hydrolysis by acid entry in [2] is “Hydrolyzable”.
